Measurements from PMC6028903, “Solubility Thermodynamics of CyMe 4 -BTBP in Various Diluents Mixed with TBP” (Journal of Solution Chemistry, 2018).
Values after ≈ are worked out from the molar mass of the structure shown. Like-named read-outs stand apart in the source and are kept apart here. Marks after values point to notes of the source that are not given here.

Columns and labels:
[1] = 298 K; cited from earlier work
[2] = literature; cited from earlier work
[3] = set-up: method as in earlier work; conditions: literature; cited from earlier work
[4] = literature; cited from earlier work; remark: listed apart in the source
[5] = Solubility of CyMe4-BTBP in GANEX solvents (70% vol diluent, 30% vol TBP), UV-VIS of the Fe2+ complex; format: physicochemical; conditions: organic solvent or mixture, thermodynamic from solid
[6] = Dissolution thermodynamics of CyMe4-BTBP (van't Hoff linear fit and heat capacity calculation); format: physicochemical; conditions: for c (288 K), calculated CyMe 4 -BTBP concentration / c (298 K), calculated CyMe 4 -BTBP concentration / c (308 K), calculated CyMe 4 -BTBP concentration: calculated from linear fits; for ΔG^0 (288 K) / ΔG^0 (298 K) / ΔG^0 (308 K): from linear fits; for ΔH^0 / ΔS^0: calculated using ΔCp; for ΔH^0 linear / ΔS^0 linear: linear fit
[7] = set-up: method as in doi:10.1080/07366299.2011.539462; conditions: cited from earlier work
[8] = 10 mmol/L CyMe4-BTBP, cited from earlier work
[9] = Density (tensiometer with density probe); format: physicochemical; conditions: 294 K, 0.1 MPa
Protocol: (§1) The density, ρ , and surface tension, γ , against air (using the du Noüy ring method) for the different solvents was measured at room temperature (293–295 K) using a tensiometer (Sigma 700, Attension). The surface tensiometer ring was lowered into the organic phase until it was totally immersed. The tensiometer then measured the surface tension automatically by slowly pulling out the ring of the organic phase and measuring the force required to detach the ring from the organic surface. The density was measured using the same tensiometer and a calibrated density probe.

[10] = Surface tension against air (du Noüy ring method); format: physicochemical; conditions: 294 K, 0.1 MPa
Protocol: as §1

[11] = Cyclohex./TBP b, pre-equilibrated with HNO3
[12] = Cyclohex./TBP b, pre-equilibrated
[13] = FS-13/TBP b, pre-equilibrated with HNO3
[14] = Octanol/TBP b, pre-equilibrated with HNO3
[15] = Octanol/TBP b, pre-equilibrated

In the case of `O=C1CCCCC1` [Cyclohexanone, cyclohexanone], the Solvent in water [1] is given as 2.3^b wt%, the Water in solvent [1] is given as 8.0^b wt% and the Surface tension [2] is given as 34.4^a mN · m ^-1. The Density [3] was 0.95^b g · cm ^-3 and the Flash point [4] was 317 K^a.
`CC1(C)CCC(C)(C)c2nc(-c3cccc(-c4cccc(-c5nnc6c(n5)C(C)(C)CCC6(C)C)n4)n3)nnc21` [CyMe 4 -BTBP, 6,6′-bis(5,5,8,8-tetramethyl-5,6,7,8-tetrahydrobenzo[1,2,4]triazin-3-yl)[2,2′]bipyridine] gave a solubility at 3 days ([5]; GANEX solvent 1-octanol/TBP, 25 °C, Octanol/TBP, 70% vol diluent and 30% vol TBP, 298 K, read-out: CyMe 4 -BTBP solubility at 298 K) of 13 mM (≈ 6.95 mg/mL), a solubility at 3 days ([5]; GANEX solvent FS-13/TBP, 25 °C, FS-13/TBP, 70% vol diluent and 30% vol TBP, 298 K, read-out: CyMe 4 -BTBP solubility at 298 K) of 130 mM (≈ 69.5 mg/mL) and a solubility at 3 days ([5]; GANEX solvent FS-13/TBP, 70% vol FS-13 and 30% vol TBP, 4 mol/L NaCl in Milli-Q water instead of nitric acid, single sample, read-out: CyMe 4 -BTBP solubility) of 20 mM (≈ 10.7 mg/mL). The solubility at 3 days ([5]; GANEX solvent FS-13/TBP, 70% vol FS-13 and 30% vol TBP, 4 mol/L hydrochloric acid instead of nitric acid, single sample, read-out: CyMe 4 -BTBP solubility) was 30 mM (≈ 16 mg/mL), the solubility at 3 days ([5]; GANEX solvent FS-13/TBP, 70% vol FS-13 and 30% vol TBP, Milli-Q water instead of nitric acid, single sample, read-out: CyMe 4 -BTBP solubility) was 15 mM (≈ 8.02 mg/mL) and the solubility at 3 days ([5]; GANEX solvent cyclohexanone/TBP, 25 °C, Cyclohex./TBP, 70% vol diluent and 30% vol TBP, 298 K, read-out: CyMe 4 -BTBP solubility at 298 K) was 180 mM (≈ 96.2 mg/mL). For the same compound, the “c (288 K), calculated CyMe 4 -BTBP concentration” value ([6]; Cyclohex./TBP a, pristine) was 13 mmol · L ^-1, the “ΔG^0 (288 K)” value ([6]; Cyclohex./TBP a, pristine) was 10.5 kJ · mol ^-1 and the “c (298 K), calculated CyMe 4 -BTBP concentration” value ([6]; Cyclohex./TBP a, pristine) was 27 mmol · L ^-1. The “ΔG^0 (298 K)” value ([6]; Cyclohex./TBP a, pristine) was 8.9 kJ · mol ^-1, the “c (308 K), calculated CyMe 4 -BTBP concentration” value ([6]; Cyclohex./TBP a, pristine) was 56 mmol · L ^-1 and the “ΔG^0 (308 K)” value ([6]; Cyclohex./TBP a, pristine) was 7.4 kJ · mol ^-1. For the same compound, the “ΔH^0” value ([6]; Cyclohex./TBP a, pristine) was 53 kJ · mol ^-1, the “ΔS^0” value ([6]; Cyclohex./TBP a, pristine) was 150 J · mol ^-1· K ^-1 and the “ΔH^0 linear” value ([6]; Cyclohex./TBP a, pristine) was 54.4 ± 2.6 kJ · mol ^-1. The “ΔS^0 linear” value ([6]; Cyclohex./TBP a, pristine) was 152.4 ± 1.9 J · mol ^-1· K ^-1, the ΔCp [6, 11] was 1.4 kJ · mol ^-1· K ^-1 and the “ΔH^0” value [6, 11] was 15 kJ · mol ^-1. The “ΔS^0” value [6, 11] was 38 J · mol ^-1· K ^-1, the “ΔH^0 linear” value [6, 11] was 13.3 ± 0.5 kJ · mol ^-1 and the “ΔS^0 linear” value [6, 11] was 30.8 ± 0.3 J · mol ^-1· K ^-1. For the same compound, the “c (288 K), calculated CyMe 4 -BTBP concentration” value [6, 12] was 160 mmol · L ^-1, the “ΔG^0 (288 K)” value [6, 12] was 4.4 kJ · mol ^-1 and the “c (298 K), calculated CyMe 4 -BTBP concentration” value [6, 12] was 190 mmol · L ^-1. The “ΔG^0 (298 K)” value [6, 12] was 4.1 kJ · mol ^-1, the “c (308 K), calculated CyMe 4 -BTBP concentration” value [6, 12] was 230 mmol · L ^-1 and the “ΔG^0 (308 K)” value [6, 12] was 3.8 kJ · mol ^-1. The ΔCp ([6]; FS-13/TBP a, pristine) was 1.3 kJ · mol ^-1· K ^-1, the “c (288 K), calculated CyMe 4 -BTBP concentration” value ([6]; FS-13/TBP a, pristine) was 14 mmol · L ^-1 and the “ΔG^0 (288 K)” value ([6]; FS-13/TBP a, pristine) was 10.3 kJ · mol ^-1. For the same compound, the “c (298 K), calculated CyMe 4 -BTBP concentration” value ([6]; FS-13/TBP a, pristine) was 16 mmol · L ^-1, the “ΔG^0 (298 K)” value ([6]; FS-13/TBP a, pristine) was 10.3 kJ · mol ^-1 and the “c (308 K), calculated CyMe 4 -BTBP concentration” value ([6]; FS-13/TBP a, pristine) was 17 mmol · L ^-1. The “ΔG^0 (308 K)” value ([6]; FS-13/TBP a, pristine) was 10.4 kJ · mol ^-1, the “ΔH^0” value ([6]; FS-13/TBP a, pristine, 288, 298, 308 K) was 8 kJ · mol ^-1 and the “ΔH^0 linear” value ([6]; FS-13/TBP a, pristine) was 8.3 ± 0.6 kJ · mol ^-1. The “ΔH^0” value [6, 13] was 27 kJ · mol ^-1, the “ΔS^0” value [6, 13] was 72 J · mol ^-1· K ^-1 and the “ΔH^0 linear” value [6, 13] was 26.6 ± 0.3 kJ · mol ^-1. For the same compound, the “ΔS^0 linear” value [6, 13] was 72.1 ± 0.2 J · mol ^-1· K ^-1, the “c (288 K), calculated CyMe 4 -BTBP concentration” value ([6]; FS-13/TBP b, pre-equilibrated) was 90 mmol · L ^-1 and the “ΔG^0 (288 K)” value ([6]; FS-13/TBP b, pre-equilibrated) was 5.8 kJ · mol ^-1. The “c (298 K), calculated CyMe 4 -BTBP concentration” value ([6]; FS-13/TBP b, pre-equilibrated) was 130 mmol · L ^-1, the “ΔG^0 (298 K)” value ([6]; FS-13/TBP b, pre-equilibrated) was 5.1 kJ · mol ^-1 and the “c (308 K), calculated CyMe 4 -BTBP concentration” value ([6]; FS-13/TBP b, pre-equilibrated) was 180 mmol · L ^-1. For the same compound, the “ΔG^0 (308 K)” value ([6]; FS-13/TBP b, pre-equilibrated) was 4.4 kJ · mol ^-1, the “c (288 K), calculated CyMe 4 -BTBP concentration” value ([6]; Octanol/TBP a, pristine) was 3.4 mmol · L ^-1 and the “ΔG^0 (288 K)” value ([6]; Octanol/TBP a, pristine) was 13.6 kJ · mol ^-1. The “c (298 K), calculated CyMe 4 -BTBP concentration” value ([6]; Octanol/TBP a, pristine) was 4.3 mmol · L ^-1, the “ΔG^0 (298 K)” value ([6]; Octanol/TBP a, pristine) was 13.4 kJ · mol ^-1 and the “c (308 K), calculated CyMe 4 -BTBP concentration” value ([6]; Octanol/TBP a, pristine) was 5.5 mmol · L ^-1. For the same compound, the “ΔG^0 (308 K)” value ([6]; Octanol/TBP a, pristine) was 13.3 kJ · mol ^-1, the “ΔH^0” value ([6]; Octanol/TBP a, pristine) was 17 kJ · mol ^-1 and the “ΔS^0” value ([6]; Octanol/TBP a, pristine) was 14 J · mol ^-1· K ^-1. For the same compound, the “ΔH^0 linear” value ([6]; Octanol/TBP a, pristine) was 18.0 ± 1.1 kJ · mol ^-1, the “ΔS^0 linear” value ([6]; Octanol/TBP a, pristine) was 15.0 ± 0.8 J · mol ^-1· K ^-1 and the ΔCp [6, 14] was 2.3 kJ · mol ^-1· K ^-1. The “ΔH^0” value [6, 14] was 21 kJ · mol ^-1, the “ΔS^0” value [6, 14] was 33 J · mol ^-1· K ^-1 and the “ΔH^0 linear” value [6, 14] was 20.0 ± 1.0 kJ · mol ^-1. The “ΔS^0 linear” value [6, 14] was 31.6 ± 0.7 J · mol ^-1· K ^-1, the “c (288 K), calculated CyMe 4 -BTBP concentration” value [6, 15] was 11 mmol · L ^-1 and the “ΔG^0 (288 K)” value [6, 15] was 10.9 kJ · mol ^-1. For the same compound, the “c (298 K), calculated CyMe 4 -BTBP concentration” value [6, 15] was 14 mmol · L ^-1, the “ΔG^0 (298 K)” value [6, 15] was 10.6 kJ · mol ^-1 and the “c (308 K), calculated CyMe 4 -BTBP concentration” value [6, 15] was 18 mmol · L ^-1. For the same compound, the “ΔG^0 (308 K)” value [6, 15] was 10.2 kJ · mol ^-1, the “Solubility in a nitric acid aqueous phase” value [7] was “not soluble above the detection limit” and the “Americium distribution ratio at 298 K using 10 mmol · L ^-1 CyMe 4 -BTBP” value (“Americium distribution ratio at 298 K” below) ([8]; Cyclohex./TBP) was 160^b. The “Americium distribution ratio at 298 K” value ([8]; FS-13/TBP) was 30^a and the “Americium distribution ratio at 298 K” value ([8]; Octanol/TBP) was 30^c.
For `O=S(=O)(c1ccccc1)C(F)(F)F` [FS-13, phenyl trifluoromethyl sulfone], the Density [9] is given as 1.40 ± 0.01 g · cm ^-3, the Flash point [4] is given as 395 K^d and the Surface tension [10] is given as 26.6 ± 0.01 mN · m ^-1.
For `CCCCCCCCO` [1-Octanol, 1-octanol], the Solvent in water [1] is given as 0.0538^b wt%, the Water in solvent [1] is given as 4.2^c wt% and the Surface tension [2] is given as 27.2^a mN · m ^-1. For the same compound, the Density [3] was 0.83^b g · cm ^-3 and the Flash point [4] was 358 K^a.
